Results from patent US20230339886A1 (University of Florida Research Foundation, Incorporated, priority 2020, published 2023).
pEC50: −log10 of the molar value.

Target: T1, REV-ERBα LBD (human; residues 281-614 Δ324-422) (Homo sapiens, UniProt P20393, DEL324-422)
T1 construct: 6×Histag-REV-ERBα LBD (human; residues 281-614 Δ324-422); made in house; host or cells: Escherichia coli
Test: TR-FRET corepressor interaction assay (REV-ERBα LBD, FITC-SMRT peptide)
Format: biochemical
Settings: Table 2, read-out: REVERBα agonism (EC50 class, FRET assay)
In short: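 Compound serial dilutions (in DMSO, triplicate) incubated 2 h at 4 °C; Tb donor excited at 340 nm, emission read at 495 nm and FITC acceptor at 520 nm. TR-FRET ratio (520/495 nm) plotted against ligand concentration and fitted to a sigmoidal dose-response curve.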

T1 sequence (P20393 with tags, fused parts or gaps DEL324-422): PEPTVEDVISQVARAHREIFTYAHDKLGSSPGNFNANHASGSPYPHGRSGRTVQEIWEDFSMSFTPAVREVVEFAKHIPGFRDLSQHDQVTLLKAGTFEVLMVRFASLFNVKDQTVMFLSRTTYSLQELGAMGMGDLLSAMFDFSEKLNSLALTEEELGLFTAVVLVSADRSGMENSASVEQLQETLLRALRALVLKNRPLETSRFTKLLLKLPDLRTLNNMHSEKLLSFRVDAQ
T1 sequence (Q9Y618 2335-2356 partner limits assumed): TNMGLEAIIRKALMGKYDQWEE

Compound | pEC50
CC(C)Cn1cc(CCNS(=O)(=O)N(C)C)c2cc(F)c(-c3ccncc3)cc21 [Example 176, ({2-[5-fluoro-1-(2-methylpropyl)-6-(pyridin-4-yl)-1H-indol-3-yl]ethyl}sulfamoyl)dimethylamine] | > 6.30
CC(C)Cn1cc(C(C)(C)CNS(=O)(=O)N(C)C)c2ccc(-c3ccncc3)cc21 [Example 177, dimethyl({2-methyl-2-[1-(2-methylpropyl)-6-(pyridin-4-yl)-1H-indol-3-yl]propyl}sulfamoyl)amine] | 5.52 to 6.30
CN(C)S(=O)(=O)NCCc1cn(CCC(F)(F)F)c2cc(-c3ccncc3)ccc12 [Example 179, dimethyl({2-[6-(pyridin-4-yl)-1-(3,3,3-trifluoropropyl)-1H-indol-3-yl]ethyl}sulfamoyl)amine] | > 6.30
CC(C)C(=O)n1cc(CNS(=O)(=O)N(C)C)c2ccc(-c3ccccc3Cl)cc21 [Example 183] | 5.52 to 6.30
CN(C)S(=O)(=O)NCCn1cc(CC(C)(C)C)c2cc(-c3ccccc3Cl)ccc21 [Example 190, N-{2-[5-(2-chlorophenyl)-3-(2,2-dimethylpropyl)-1H-indol-1-yl]ethyl}-N,N-dimethyl-sulfuric diamide] | > 6.30
CN(C)C(=O)n1cc(CCNS(=O)(=O)N(C)C)c2ccc(-c3ccncc3)cc21 [Example 194, 3-(2-((N,N-dimethylsulfamoyl)amino)ethyl)-N,N-dimethyl-6-(pyridin-4-yl)-1H-indole-1-carboxamide] | < 5.52
CC(C)C(=O)n1cc(C(C)NS(=O)(=O)N(C)C)c2ccc(-c3ccccc3Cl)cc21 (centres unmarked) [Example 196, 1-[6-(2-chlorophenyl)-3-{1-[(dimethylsulfamoyl)amino]ethyl}-1H-indol-1-yl]-2-methylpropan-1-one] | > 6.30
CC(NS(=O)(=O)N(C)C)c1cn(C(=O)C(C)(C)C)c2cc(-c3ccncc3)ccc12 (centres unmarked) [Example 197, 1-(3-{1-[(dimethylsulfamoyl)amino]ethyl}-6-(pyridin-4-yl)-1H-indol-1-yl)-2,2-dimethylpropan-1-one] | > 6.30
CC(C)Cn1cc(C(C)NS(=O)(=O)C2CC2)c2ccc(-c3ccccc3C(F)(F)F)cc21 (centres unmarked) [Example 204, N-(1-(1-isobutyl-6-(2-(trifluoromethyl)phenyl)-1H-indol-3-yl)ethyl)cyclopropanesulfonamide] | > 6.30
CC(C)Cn1cc(C2(NS(=O)(=O)N(C)C)CC2)c2ccc(-c3ccncc3)cc21 [Example 207, dimethyl({1-[1-(2-methylpropyl)-6-(pyridin-4-yl)-1H-indol-3-yl]cyclopropyl}sulfamoyl)amine] | < 5.52
CC(C)Cn1cc(C(NS(=O)(=O)C2CC2)C(F)(F)F)c2ccc(-c3ccccc3C(F)(F)F)cc21 (centres unmarked) [Example 208] | > 6.30
CC(C)(C)Cc1cn(CCNS(=O)(=O)C2CC2)c2ccc(-c3cccc4ccccc34)cc12 [Example 209, N-(2-(5-(naphthalen-1-yl)-3-neopentyl-1H-indol-1-yl)ethyl)cyclopropane-sulfonamide] | > 6.30
CC(C)(C)Cc1cn(CCNS(=O)(=O)C2CC2)c2ccc(-c3ccc4cc(O)ccc4c3)cc12 [Example 211, N-(2-(5-(6-hydroxynaphthalen-2-yl)-3-neopentyl-1H-indol-1-yl)ethyl)cyclopropane sulfonamide] | 5.52 to 6.30
CC(C)(C)Cc1cn(CCNS(=O)(=O)C2CC2)c2ccc(-c3ccccc3Cl)cc12 [Example 213, N-(2-(5-(2-chlorophenyl)-3-neopentyl-1H-indol-1-yl)ethyl)cyclopropanesulfonamide] | > 6.30
CC(C)(C)Cc1cn(CCNS(=O)(=O)C2CC2)c2ccc(-c3cccc4ccncc34)cc12 [Example 217, N-(2-(5-(isoquinolin-8-yl)-3-neopentyl-1H-indol-1-yl)ethyl)cyclopropane-sulfonamide] | 5.52 to 6.30
CC(C)Cn1cc([C@@H](NS(=O)(=O)C2CC2)C(F)(F)F)c2ccc(-c3ccccc3C(F)(F)F)cc21 [Example 222, (R)—N-(2,2,2-trifluoro-1-(1-isobutyl-6-(2-(trifluoromethyl)phenyl)-1H-indol-3-yl)ethyl)cyclopropanesulfonamide] | 5.52 to 6.30
CC(C)Cn1cc(C(NS(=O)(=O)N(C)C)C(F)(F)F)c2ccc(-c3ccccc3C(F)(F)F)cc21 (centres unmarked) [Example 223, dimethyl({2,2,2-trifluoro-1-[1-(2-methylpropyl)-6-[2-(trifluoromethyl)phenyl]-1H-indol-3-yl]ethyl}sulfamoyl)amine] | > 6.30
CC(C)Cn1cc(C(NS(=O)(=O)C(C)C)C(F)(F)F)c2ccc(-c3ccccc3C(F)(F)F)cc21 (centres unmarked) [Example 224, N-(2,2,2-trifluoro-1-(1-isobutyl-6-(2-(trifluoromethyl)phenyl)-1H-indol-3-yl)ethyl)propane-2-sulfonamide] | 5.52 to 6.30

Now from value to molecule:

pEC50 | Compound
> 6.30 | Cc1cc2c(cc1F)c(CCNS(=O)(=O)N(C)C)cn2CC(C)C [Example 170, ({2-[5-fluoro-6-methyl-1-(2-methylpropyl)-1H-indol-3-yl]ethyl}sulfamoyl)dimethylamine]
5.52 to 6.30 | CC(C)S(=O)(=O)NCCn1cc(CC(C)(C)C)c2cc(Br)ccc21 [Example 171, N-(2-(5-bromo-3-neopentyl-1H-indol-1-yl)ethyl)propane-2-sulfonamide]
5.52 to 6.30 | CN(C)S(=O)(=O)NCCn1cc(CCC(F)(F)F)c2cc(Br)ccc21 [Example 172, N-{2-[5-bromo-3-(3,3,3-trifluoropropyl)-1H-indol-1-yl]ethyl}-N,N-dimethylsulfuric diamide]
5.52 to 6.30 | CC(C)Cc1cn(CCS(=O)(=O)C(C)C)c2ccc(Br)cc12 [Example 173, 5-bromo-3-isobutyl-1-(2-(isopropylsulfonyl)ethyl)-1H-indole]
5.52 to 6.30 | CC(C)Cc1cn(CCS(=O)(=O)C(C)(C)C)c2ccc(Br)cc12 [Example 174, 5-bromo-1-(2-(tert-butylsulfonyl)ethyl)-3-isobutyl-1H-indole]
< 5.52 | CC(C)S(=O)(=O)CCn1cc(CC(C)(C)C)c2cc(Br)ccc21 [Example 175, 5-bromo-1-(2-(isopropylsulfonyl)ethyl)-3-neopentyl-1H-indole]
> 6.30 | CC(C)Cn1cc(C2(CNS(=O)(=O)N(C)C)CC2)c2ccc(-c3ccncc3)cc21 [Example 178, dimethyl[({1-[1-(2-methylpropyl)-6-(pyridin-4-yl)-1H-indol-3-yl]cyclopropyl}methyl)sulfamoyl]amine]
5.52 to 6.30 | CC(C)C(=O)n1cc(CNS(=O)(=O)N(C)C)c2ccc(-c3ccncc3)cc21 [Example 182, 1-(3-{[(dimethylsulfamoyl)amino]methyl}-6-(pyridin-4-yl)-1H-indol-1-yl)-2-methylpropan-1-one]
< 5.52 | CC(C)C(=O)n1cc(CNS(=O)(=O)N(C)C)c2ccc(-c3ccnn3C)cc21 [Example 184, 1-(3-{[(dimethylsulfamoyl)amino]methyl}-6-(1-methyl-1H-pyrazol-5-yl)-1H-indol-1-yl)-2-methylpropan-1-one]
> 6.30 | CC(C)C(=O)n1cc(CNS(=O)(=O)N(C)C)c2ccc(-c3ccccc3C(F)(F)F)cc21 [Example 185, 1-(3-{[(dimethylsulfamoyl)amino]methyl}-6-[2-(trifluoromethyl)phenyl]-1H-indol-1-yl)-2-methylpropan-1-one]
5.52 to 6.30 | CN(C)S(=O)(=O)NCc1cn(C(=O)C(C)(C)C)c2cc(-c3ccncc3)ccc12 [Example 186, 1-(3-{[(dimethylsulfamoyl)amino]methyl}-6-(pyridin-4-yl)-1H-indol-1-yl)-2,2-dimethylpropan-1-one]
< 5.52 | CCC(=O)n1cc(CNS(=O)(=O)N(C)C)c2ccc(-c3ccncc3)cc21 [Example 187, 1-(3-{[(dimethylsulfamoyl)amino]methyl}-6-(pyridin-4-yl)-1H-indol-1-yl)propan-1-one]
> 6.30 | CCC(C)C(=O)n1cc(CNS(=O)(=O)N(C)C)c2ccc(-c3ccncc3)cc21 (centres unmarked) [Example 188, 1-(3-{[(dimethylsulfamoyl)amino]methyl}-6-(pyridin-4-yl)-1H-indol-1-yl)-2-methylbutan-1-one]
> 6.30 | CN(C)S(=O)(=O)NCCn1cc(CC(C)(C)C)c2cc(-c3ccncc3)ccc21 [Example 189, N-{2-[5-(pyridin-4-yl)-3-(2,2-dimethylpropyl)-1H-indol-1-yl]ethyl}-N,N-dimethylsulfuric diamide]
< 5.52 | Cc1cc(-c2ccncc2)cc2c1c(CCNS(=O)(=O)N(C)C)cn2CC(C)C [Example 202, dimethyl({2-[4-methyl-1-(2-methylpropyl)-6-(pyridin-4-yl)-1H-indol-3-yl]ethyl}sulfamoyl)amine]
5.52 to 6.30 | CC(C)(C)Cc1cn(CCNS(=O)(=O)C2CC2)c2ccc(-c3ccc4ccccc4c3)cc12 [Example 210, N-(2-(5-(naphthalen-2-yl)-3-neopentyl-1H-indol-1-yl)ethyl)cyclopropane-sulfonamide]
< 5.52 | CC(C)(C)Cc1cn(CCNS(=O)(=O)C2CC2)c2ccc(-c3nccc4ccccc34)cc12 [Example 215, N-(2-(5-(isoquinolin-1-yl)-3-neopentyl-1H-indol-1-yl)ethyl)cyclopropane-sulfonamide]
5.52 to 6.30 | CC(C)(C)Cc1cn(CCNS(=O)(=O)C2CC2)c2ccc(-c3cncc4ccccc34)cc12 [Example 218, N-(2-(5-(isoquinolin-4-yl)-3-neopentyl-1H-indol-1-yl)ethyl)cyclopropane-sulfonamide]
> 6.30 | CC(C)(C)Cc1cn(CCNS(=O)(=O)C2CC2)c2ccc(-c3ccc(F)c4ccccc34)cc12 [Example 219, N-(2-(5-(4-fluoronaphthalen-1-yl)-3-neopentyl-1H-indol-1-yl)ethyl)cyclopropanesulfonamide]
5.52 to 6.30 | CC(C)(C)Cc1cn(CCNS(=O)(=O)C2CC2)c2ccc(-c3ccccc3)cc12 [Example 225, N-(2-(3-neopentyl-5-phenyl-1H-indol-1-yl)ethyl)cyclopropanesulfonamide]
